Measured values as given in BindingDB's records for doi:10.1016/j.bmcl.2010.05.049 (University of Athens, 2010).

experiment: Binding affinity to Influenza A Weybridge(H7N7) virus Matrix protein 2 by spectrophotometry

Point of comparison: `NC1CCCCCC1` [Cycloheptanamine], Kd 16200 nM. Against it:
- NC12CC3CC(CC(C3)C1)C2 [SYMADINE] — 51-fold lower, 320 nM
- CCCC1(N)C2CC3CC(C2)CC1C3 (stereo unspecified) — 1.9-fold lower, 8710 nM
- CCC1CCC2(N1)C1CC3CC(C1)CC2C3 (stereo unspecified) — 2.9-fold lower, 5580 nM
- CC1CCC2(N1)C1CC3CC(C1)CC2C3 (stereo unspecified) — 11-fold lower, 1500 nM
- CN1CCCC12C1CC3CC(C1)CC2C3 (stereo unspecified) — 5.5-fold lower, 2930 nM
- C1CNC(C23CC4CC(CC(C4)C2)C3)C1 (stereo unspecified) — 32-fold lower, 510 nM
- CC1(N)C2CC3CC(C2)CC1C3 (stereo unspecified) — 4.5-fold lower, 3600 nM
- NC1CCCCCCC1 [Cyclooctanamine] — 8.9-fold lower, 1830 nM
- C1CCC2(NC1)C1CC3CC(C1)CC2C3 (stereo unspecified) — 42-fold lower, 390 nM
- C1CNC2(C1)C1CC3CC(C1)CC2C3 (stereo unspecified) — 14-fold lower, 1160 nM
- C1CCC(C23CC4CC(CC(C4)C2)C3)NC1 (stereo unspecified) — 11-fold lower, 1510 nM
- NC12CC3CC(C1)CC(F)(C3)C2 — 3.3-fold lower, 4860 nM
- CCC1(N)C2CC3CC(C2)CC1C3 (stereo unspecified) — 2.4-fold lower, 6700 nM
- NC1C2CC3CC(C2)CC1C3 (stereo unspecified) [2-Adamantanamine] — 6.9-fold lower, 2360 nM
- O=C1CCC2(N1)C1CC3CC(C1)CC2C3 (stereo unspecified) — 11-fold lower, 1490 nM
